In patent US20240130368A1, “HERBICIDAL COMPOSITION” (Nippon Soda Co., Ltd., priority 2021, published 2024):
Like-named read-outs stand apart in the source and are kept apart here.

Tested on: Ambrosia artemisiifolia
Assay: Test Example 1: seeds on filter paper moistened with chemical solution, herbicidal effect visually evaluated
Assay type: in vivo
Conditions: visually evaluated 6 days after treatment
Procedure: As the compound (1), 1-methoxy-3-methyl-6-(1,1-dioxido-8-(trifluoromethyl)thiochroman-5-yl)-7-oxa-3,4-diazabicyclo[4.1.0]hept-4-en-2-one (Compound (I-3)) was used.
The compound (I) or compound (II) was prepared into a 5% emulsion using DMF (containing 1.5% Tween) and diluted with water to a prescribed dosage concentration. Commercially available preparations were dissolved in water and adjusted to a prescribed dosage concentration.
Seeds were soaked in 0.6% sodium hypochlorite for a predetermined time for surface sterilization and washed with water for use (seed disinfection). Seeds of Ambrosia artemisiifolia were used for the test.
Filter paper was placed on a cup (diameter: 10 cm, height: 4 cm) with a lid and moistened with 8 ml of chemical solution, and seeds were sown thereon, and after covering with a lid, grown in a constant temperature room.
The herbicidal effects were visually evaluated, 6 days after the treatment, as the herbicidal effect (%), by comparing with a state of an untreated group using a total of 21 scores of withering index from 0 to 20 (0: mortality rate equivalent to that of the untreated group, 20: mortality rate of 100%).
In addition, the expected values of the herbicidal effects were calculated from the herbicidal effects in a case where the compound (I) alone was applied and the herbicidal effects in a case where the compound (II) alone was applied by using the Colby's formula (Colby, S. R., Calculating synergistic and antagonistic responses of herbicide combinations, Weeds, 15, pp. 20-22 (1967)).
M indicates an herbicidal effect (%) in the application of the compound (I) alone, N indicates an herbicidal effect (%) in the application of the compound (II) alone, and E indicates an expected value (%) of the herbicidal effect in the combined application of the compound (T) and the compound (TT). When the actual measured value (%) of the herbicidal effect in the combined application of the compound (I) and the compound (II) is greater than the expected value E, it can be regarded that the combined application of the compound (I) and the compound (II) has a synergistic effect.

[1] = Ambrosia artemisiifolia, 144 h, compound applied alone, amount of active ingredient 3.1 ppm, read-out: Herbicidal effect (%)
[2] = applied alone, amount of active ingredient 0.8 ppm
[3] = Ambrosia artemisiifolia, 144 h, compound applied alone, amount of active ingredient 0.8 ppm, read-out: Herbicidal effect (%)
[4] = Ambrosia artemisiifolia, 144 h, applied alone, amount of active ingredient 50 ppm, read-out: Herbicidal effect (%)
[5] = Ambrosia artemisiifolia, 144 h, read-out: Herbicidal effect (%), applied alone, amount of active ingredient 12.5 ppm
[6] = Ambrosia artemisiifolia, 144 h, applied alone, amount of active ingredient 0.2 ppm, read-out: Herbicidal effect (%)
[7] = compound applied alone, amount of active ingredient 12.5 ppm
[8] = Ambrosia artemisiifolia, 144 h, applied alone, amount of active ingredient 0.8 ppm, read-out: Herbicidal effect (%)
[9] = Ambrosia artemisiifolia, 144 h, compound applied alone, amount of active ingredient 0.2 ppm, read-out: Herbicidal effect (%)
[10] = Ambrosia artemisiifolia, 144 h, applied alone, amount of active ingredient 12.5 ppm, read-out: Herbicidal effect (%)
[11] = Ambrosia artemisiifolia, 144 h, compound applied alone, amount of active ingredient 0.012 ppm
[12] = compound applied alone, amount of active ingredient 0.2 ppm

In the case of 2,4-D amine, the “Herbicidal effect (%)” value (applied alone, amount of active ingredient 0.05 ppm) is reported as 20%.

Compound `Cc1ccccc1CO[C@@H]1C[C@@]2(C(C)C)CC[C@]1(C)O2` (racemic) [Cinmethylin] has a pest or weed control at 3.1 ppm [1] of 50%.

`CCCCC(CC)COC(=O)COc1ccc(Cl)cc1Cl` (stereo not drawn) [2,4-D 2-ethylhexyl ester] was tested, and the “Herbicidal effect (%)” value [2] was 50%.

In the case of `Nc1c([N+](=O)[O-])ccc(Oc2ccccc2)c1Cl` [Aclonifen], the pest or weed control at 50 ppm (Ambrosia artemisiifolia, 144 h, compound applied alone, amount of active ingredient 50 ppm, read-out: Herbicidal effect (%)) is reported as 20%.

Work on `CCc1cccc(CC)c1N(COC)C(=O)CCl` [Alachlor] yielded a pest or weed control at 0.8 ppm [3] of 20%.

For `CC(C)c1nn(C(=O)NC(C)(C)C)c(=O)n1N` [Amicarbazone], the “Herbicidal effect (%)” value (applied alone, amount of active ingredient 50 ppm) was 0%.

`Nc1nc[nH]n1` [Amitrole] showed a pest or weed control at 3.1 ppm [1] of 20%.

`COC(=O)NS(=O)(=O)c1ccc(N)cc1` [Asulam] gave a pest or weed control at 3.1 ppm [1] of 20%.

`CC(C)N1C(=O)c2ccccc2NS1(=O)=O` [Bentazon] showed a pest or weed control at 200 ppm (Ambrosia artemisiifolia, 144 h, applied alone, amount of active ingredient 200 ppm) of 20%.

`N#Cc1cc(Br)c(O)c(Br)c1` [Bromoxynil] was tested, and the pest or weed control at 3.1 ppm (Ambrosia artemisiifolia, 144 h, applied alone, amount of active ingredient 3.1 ppm, read-out: Herbicidal effect (%)) was 0%.

With `CCOC(=O)C(Cl)Cc1cc(-n2nc(C)n(C(F)F)c2=O)c(F)cc1Cl` (stereo not drawn) [Carfentrazone-ethyl] the pest or weed control at 0.8 ppm (Ambrosia artemisiifolia, 144 h, read-out: Herbicidal effect (%), applied alone, amount of active ingredient 0.8 ppm) was 50%.

With `Cc1ccc(NC(=O)N(C)C)cc1Cl` [Chlorotoluron] the pest or weed control at 50 ppm [4] was 40%.

`CCSC(C)CC1CC(=O)C(/C(CC)=N/OC/C=C/Cl)=C(O)C1` (stereo not drawn) [Clethodim] gave a pest or weed control at 12.5 ppm [5] of 0%.

`CC1(C)CON(Cc2ccccc2Cl)C1=O` [Clomazone] showed a pest or weed control at 0.2 ppm [6] of 10%.

With `Cc1cccc(C2CC2)c1Oc1nnc(Cl)cc1OC(=O)N1CCOCC1` [Cyclopyrimorate] the “Herbicidal effect (%)” value [7] was 40%.

In the case of `COc1c(Cl)ccc(Cl)c1C(=O)O` [Dicamba], the pest or weed control at 0.8 ppm [8] is reported as 30%.

With `O=C(Nc1ccc(F)cc1F)c1cccnc1Oc1cccc(C(F)(F)F)c1` [Diflufenican] the pest or weed control at 0.2 ppm [9] was 10%.

In the case of `C/C(=N\NC(=O)Nc1cc(F)cc(F)c1)c1ncccc1C(=O)[O-].[Na+]` [Diflufenzopyr-sodium], the “Herbicidal effect (%)” value [7] is reported as 20%.

With `COC[C@H](C)N(C(=O)CCl)c1c(C)csc1C` [Dimethenamid-P] the “Herbicidal effect (%)” value (compound applied alone, amount of active ingredient 0.8 ppm) was 30%.

`c1cc[n+]2c(c1)-c1cccc[n+]1CC2` [Diquat] was tested, and the pest or weed control at 0.2 ppm (Ambrosia artemisiifolia, 144 h, read-out: Herbicidal effect (%), compound applied alone, amount of active ingredient 0.2 ppm) was 30%.

`CCOC(=O)COc1ncccc1Oc1cc(-n2c(=O)cc(C(F)(F)F)n(C)c2=O)c(F)cc1Cl` [Epyrifenacil] was tested, and the “Herbicidal effect (%)” value (compound applied alone, amount of active ingredient 0.0125 ppm) was 80%.

With `Cc1ccn2nc(S(=O)(=O)Nc3c(F)cccc3F)nc2n1` [Flumetsulam] the pest or weed control at 12.5 ppm [10] was 40%.

Work on `C#CCN1C(=O)COc2cc(F)c(N3C(=O)C4=C(CCCC4)C3=O)cc21` [Flumioxazin] yielded a pest or weed control at 0.05 ppm (Ambrosia artemisiifolia, 144 h, applied alone, amount of active ingredient 0.05 ppm, read-out: Herbicidal effect (%)) of 80%.

`NC(=O)c1nc(-c2ccccc2)n(-c2ccc(Cl)c(COCC(F)(F)C(F)(F)F)c2)n1` [Flupoxam] was tested, and the pest or weed control at 0.012 ppm [11] was 65%.

For `Nc1c(Cl)c(F)nc(OCC(=O)O)c1Cl` [Fluroxypyr], the pest or weed control at 0.8 ppm [8] was 40%.

`COc1cc(OC)nc(NC(=O)NS(=O)(=O)c2cc(NC=O)ccc2C(=O)N(C)C)n1` [Foramsulfuron] showed a pest or weed control at 0.8 ppm [8] of 65%.

For `CP(=O)(O)CCC(N)C(=O)O` (stereo not drawn) [Glufosinate-ammonium], the pest or weed control at 12.5 ppm [5] was 20%.

In the case of `O=C(O)CNCP(=O)(O)O` [Glyphosate], the pest or weed control at 12.5 ppm [5] is reported as 20%.

In the case of `COC(=O)c1nc(-c2ccc(Cl)c(OC)c2F)cc(N)c1Cl` [Halauxifen-methyl], the “Herbicidal effect (%)” value (compound applied alone, amount of active ingredient 0.012 ppm) is reported as 70%.

In the case of `COC(=O)c1c(Cl)nn(C)c1S(=O)(=O)NC(=O)Nc1nc(OC)cc(OC)n1` [Halosulfuron-methyl], the pest or weed control at 0.05 ppm (Ambrosia artemisiifolia, 144 h, read-out: Herbicidal effect (%), compound applied alone, amount of active ingredient 0.05 ppm) is reported as 30%.

`COC(=O)C(C)Oc1ccc(Oc2ncc(C(F)(F)F)cc2Cl)cc1` (stereo not drawn) [Haloxyfop-methyl] showed a pest or weed control at 12.5 ppm [5] of 10%.

For `CN(C)c1nc(=O)n(C2CCCCC2)c(=O)n1C` [Hexazinone], the pest or weed control at 3.1 ppm [1] was 10%.

`CCC(C)(CC)c1cc(NC(=O)c2c(OC)cccc2OC)on1` [Isoxaben] was tested, and the pest or weed control at 0.2 ppm [9] was 75%.

`CS(=O)(=O)c1cc(C(F)(F)F)ccc1C(=O)c1cnoc1C1CC1` [Isoxaflutole] gave a pest or weed control at 0.0125 ppm (Ambrosia artemisiifolia, 144 h, compound applied alone, amount of active ingredient 0.0125 ppm) of 40%.

`CON(C)C(=O)Nc1ccc(Cl)c(Cl)c1` [Linuron] gave a pest or weed control at 12.5 ppm (Ambrosia artemisiifolia, 144 h, compound applied alone, amount of active ingredient 12.5 ppm, read-out: Herbicidal effect (%)) of 10%.

`Cc1cc(Cl)ccc1OCC(=O)O` [MCPA] was tested, and the “Herbicidal effect (%)” value (applied alone, amount of active ingredient 0.2 ppm) was 30%.

Work on `CS(=O)(=O)c1ccc(C(=O)C2C(=O)CCCC2=O)c([N+](=O)[O-])c1` [Mesotrione] yielded a pest or weed control at 0.2 ppm [9] of 50%.

In the case of `CCc1cccc(C)c1N(C(=O)CCl)C(C)COC` (stereo not drawn) [Metolachlor], the pest or weed control at 0.8 ppm [3] is reported as 10%.

Work on `CSc1nnc(C(C)(C)C)c(=O)n1N` [Metribuzin] yielded a pest or weed control at 50 ppm [4] of 0%.

`COc1cc(OC)nc(NC(=O)NS(=O)(=O)c2ncccc2C(=O)N(C)C)n1` [Nicosulfuron] was tested, and the pest or weed control at 0.8 ppm [3] was 60%.

`CCC(CC)Nc1c([N+](=O)[O-])cc(C)c(C)c1[N+](=O)[O-]` [Pendimethalin] was tested, and the pest or weed control at 0.8 ppm [8] was 20%.

In the case of `Nc1c(Cl)c(Cl)nc(C(=O)O)c1Cl` [Picloram], the pest or weed control at 0.8 ppm [8] is reported as 70%.

In the case of `O=C(Nc1ccc(F)cc1)c1cccc(Oc2cccc(C(F)(F)F)c2)n1` [Picolinafen], the “Herbicidal effect (%)” value (applied alone, amount of active ingredient 3.1 ppm) is reported as 30%.

`CCCN(CCC)C(=O)SCc1ccccc1` [Prosulfocarb] gave a pest or weed control at 0.8 ppm [8] of 20%.

For `FC(F)c1cc(-c2c(Cl)cccc2Oc2ncc(Cl)cn2)on1` [Rimisoxafen], the “Herbicidal effect (%)” value [12] was 25%.

Work on `CCS(=O)(=O)c1cccnc1S(=O)(=O)NC(=O)Nc1nc(OC)cc(OC)n1` [Rimsulfuron] yielded a pest or weed control at 0.2 ppm [6] of 20%.

For `CC(C)N(C)S(=O)(=O)NC(=O)c1cc(-n2c(=O)cc(C(F)(F)F)n(C)c2=O)c(F)cc1Cl` [Saflufenacil], the pest or weed control at 0.0125 ppm (Ambrosia artemisiifolia, 144 h, applied alone, amount of active ingredient 0.0125 ppm) was 60%.

Compound `CCC/C(=N\OCC)C1=C(O)CC(CC(C)SCC)CC1=O` (stereo not drawn) [Sethoxydim] has a pest or weed control at 0.8 ppm (Ambrosia artemisiifolia, 144 h, read-out: Herbicidal effect (%), compound applied alone, amount of active ingredient 0.8 ppm) of 0%.

`CCNc1nc(Cl)nc(NCC)n1` [Simazine] was tested, and the pest or weed control at 50 ppm [4] was 30%.

`Cc1nn(-c2cc(NS(C)(=O)=O)c(Cl)cc2Cl)c(=O)n1C(F)F` [Sulfentrazone] showed a pest or weed control at 0.012 ppm [11] of 0%.

`CNC(=O)N(C)c1nnc(C(C)(C)C)s1` [Tebuthiuron] gave a pest or weed control at 50 ppm (Ambrosia artemisiifolia, 144 h, read-out: Herbicidal effect (%), compound applied alone, amount of active ingredient 50 ppm) of 20%.

`CC/C(=N\OC/C=C/Cl)C1=C(O)CC(C2CCOCC2)CC1=O` (stereo not drawn) [Tepraloxydim] showed a pest or weed control at 3.1 ppm (Ambrosia artemisiifolia, 144 h, read-out: Herbicidal effect (%), compound applied alone, amount of active ingredient 3.1 ppm) of 10%.

Work on `CCNc1nc(Cl)nc(NC(C)(C)C)n1` [Terbuthylazine] yielded a pest or weed control at 50 ppm [4] of 0%.

With `CN1C[C@H](c2cccc(C(F)(F)F)c2)[C@@H](C(=O)Nc2ccccc2F)C1=O` [Tetflupyrolimet] the “Herbicidal effect (%)” value (compound applied alone, amount of active ingredient 3.1 ppm) was 70%.

In the case of `COC(=O)c1csc(C)c1S(=O)(=O)NC(=O)n1nc(OC)n(C)c1=O` [Thiencarbazone-methyl], the “Herbicidal effect (%)” value [2] is reported as 30%.

`Cc1c(C(=O)c2cnn(C)c2O)ccc(S(C)(=O)=O)c1C1=NOCC1` [Topramezone] was tested, and the “Herbicidal effect (%)” value [12] was 40%.

`CC(C)N(C(=O)SCC(Cl)=C(Cl)Cl)C(C)C` [Tri-allate] was tested, and the pest or weed control at 12.5 ppm [10] was 20%.
